Assay results as given in US9382188B2, “Aromatic ring compound” (TAKEDA PHARMACEUTICAL COMPANY LIMITED, priority 2012, dated 2016).

Molecular target: T1, human GPR40 (Homo sapiens, UniProt O14842)
T1 construct: expressed in transfected cells
Test: Evaluation of human GPR40 agonist activity with increase in intracellular Ca2+ concentration as an index (FLIPR Tetra)
Type: cell-based
Conditions: test compound 1 μM; CHO(dhfr-) cells stably expressing human GPR40; 100% = activity of 1 μM WO2009/048527 Example 99.2, 0% = DMSO
Summary of the method: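 CHO(dhfr-) cells stably expressing human GPR40, loaded with Calcium 5 dye in HEPES/HBSS buffer with 0.2% fatty acid-free BSA and probenecid, 1 h at 37° C. Test compound added at 1 μM final; fluorescence Ca2+ rise scaled to a reference agonist at 1 μM (100%) and DMSO (0%).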

T1 sequence (O14842 whole entry): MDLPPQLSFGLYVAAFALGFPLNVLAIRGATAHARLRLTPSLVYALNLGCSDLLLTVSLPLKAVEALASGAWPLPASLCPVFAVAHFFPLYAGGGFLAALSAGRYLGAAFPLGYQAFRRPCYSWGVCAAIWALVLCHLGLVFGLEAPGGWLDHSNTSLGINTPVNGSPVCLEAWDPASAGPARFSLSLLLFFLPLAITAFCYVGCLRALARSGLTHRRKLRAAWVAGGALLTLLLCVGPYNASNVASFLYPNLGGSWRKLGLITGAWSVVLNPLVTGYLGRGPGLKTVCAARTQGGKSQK

Row | SMILES | activation at 1 µM [%]
1 | COc1ccc(F)c(-c2ccc(OCc3cccc(C(CC(=O)O)C4CC4)c3)cc2CC2(C#N)CCC2)c1 (stereo not shown) [Example 102, 3-(3-(((2-((1-cyanocyclobutyl)methyl)-2′-fluoro-5′-methoxybiphenyl-4-yl)oxy)methyl)phenyl)-3-cyclopropylpropanoic acid] | 100
2 | COc1ccc(F)c(-c2ccc(OCc3cccc(C(CC(=O)O)C4CC4)c3)cc2CC2(C#N)CC2)c1 (stereo not shown) [Example 103, 3-(3-(((2-((1-cyanocyclopropyl)methyl)-2′-fluoro-5′-methoxybiphenyl-4-yl)oxy)methyl)phenyl)-3-cyclopropylpropanoic acid] | 119
3 | COc1cc(-c2ccc(OCc3cccc(C(CC(=O)O)C4CC4)c3)cc2CC(C)(C)C)c(F)cn1 (stereo not shown) [Example 104, 3-cyclopropyl-3-(3-((3-(2,2-dimethylpropyl)-4-(5-fluoro-2-methoxypyridin-4-yl)phenoxy)methyl)phenyl)propanoic acid] | 105
4 | CCCC(C)(C)Cc1cc(OCc2cccc(C(CC(=O)O)C3CC3)c2)ccc1-c1cc(OC)ccc1F (stereo not shown) [Example 105, 3-cyclopropyl-3-(3-(((2-(2,2-dimethylpentyl)-2′-fluoro-5′-methoxybiphenyl-4-yl)oxy)methyl)phenyl)propanoic acid] | 116
5 | CCC(C)(C)Cc1cc(OCc2cccc(C(CC(=O)O)C3CC3)c2)ccc1-c1cc(OC)ccc1F (stereo not shown) [Example 106, 3-cyclopropyl-3-(3-(((2-(2,2-dimethylbutyl)-2′-fluoro-5′-methoxybiphenyl-4-yl)oxy)methyl)phenyl)propanoic acid] | 96
6 | CCC(C)(C)C(F)c1cc(OCc2cccc(C(CC(=O)O)C3CC3)c2)ccc1-c1cc(OC)ccc1F (stereo not shown) [Example 107, 3-cyclopropyl-3-(3-(((2′-fluoro-2-(1-fluoro-2,2-dimethylbutyl)-5′-methoxybiphenyl-4-yl)oxy)methyl)phenyl)propanoic acid] | 126
7 | CCC(C)(C)C(O)c1cc(OCc2cccc(C(CC(=O)O)C3CC3)c2)ccc1-c1cc(OC)ccc1F (stereo not shown) [Example 108, 3-cyclopropyl-3-(3-(((2′-fluoro-2-(1-hydroxy-2,2-dimethylbutyl)-5′-methoxybiphenyl-4-yl)oxy)methyl)phenyl)propanoic acid] | 129
8 | CCC(C)(C)C(OC)c1cc(OCc2cccc(C(CC(=O)O)C3CC3)c2)ccc1-c1cc(OC)ccc1F (stereo not shown) [Example 109, 3-cyclopropyl-3-(3-(((2′-fluoro-5′-methoxy-2-(1-methoxy-2,2-dimethylbutyl)biphenyl-4-yl)oxy)methyl)phenyl)propanoic acid] | 119
9 | CCC(C)(C)C(OCCOC)c1cc(OCc2cccc(C(CC(=O)O)C3CC3)c2)ccc1-c1cc(OC)ccc1F (stereo not shown) [Example 110, 3-cyclopropyl-3-(3-(((2′-fluoro-5′-methoxy-2-(1-(2-methoxyethoxy)-2,2-dimethylbutyl)biphenyl-4-yl)oxy)methyl)phenyl)propanoic acid] | 94
10 | CCC(CC)(CC)Cc1cc(OCc2cccc(C(CC(=O)O)C3CC3)c2)ccc1-c1cc(OC)ccc1F (stereo not shown) [Example 111, 3-cyclopropyl-3-(3-(((2-(2,2-diethylbutyl)-2′-fluoro-5′-methoxybiphenyl-4-yl)oxy)methyl)phenyl)propanoic acid] | 111
11 | CCC(C)(CC)Cc1cc(OCc2cccc(C(CC(=O)O)C3CC3)c2)ccc1-c1cc(OC)ccc1F (stereo not shown) [Example 112, 3-cyclopropyl-3-(3-(((2-(2-ethyl-2-methylbutyl)-2′-fluoro-5′-methoxybiphenyl-4-yl)oxy)methyl)phenyl)propanoic acid] | 108
12 | COc1ccc(F)c(-c2ccc(OCc3cccc(C(CC(=O)O)C4CC4)c3)cc2CCCC(C)(C)C)c1 (stereo not shown) [Example 113, 3-cyclopropyl-3-(3-(((2-(4,4-dimethylpentyl)-2′-fluoro-5′-methoxy-[1,1′-biphenyl]-4-yl)oxy)methyl)phenyl)propanoic acid] | 102
13 | COc1ccc(F)c(-c2ccc(OCc3cccc(C(CC(=O)O)C4CC4)c3)cc2COCC(C)(C)C)c1 (stereo not shown) [Example 114, 3-cyclopropyl-3-(3-(((2′-fluoro-5′-methoxy-2-((neopentyloxy)methyl)-[1,1′-biphenyl]-4-yl)oxy)methyl)phenyl)propanoic acid] | 103
